The conditions of the data set: Liquid, Ebulliometric method (Recirculating still).

Molecules are shown by their SMILES. Numbers after ± are expanded uncertainties.

Take `OCCO` [1,2-ethanediol]: where the note is “470.22 K”, the “vapor or sublimation pressure” value came to 101.3 ± 0.5 kPa.

Turning to `CC(C)(CO)CO` [2,2-dimethyl-1,3-propanediol], the “vapor or sublimation pressure” value (478.95 K) is 101.3 ± 0.5 kPa.

Turning to `Cc1ccc(C)cc1` [1,4-dimethylbenzene], under “411.21 K”, the “vapor or sublimation pressure” value came out at 101.3 ± 0.5 kPa.

A word on the vapor or sublimation pressure: it is the pressure of vapour in equilibrium with the condensed phase.
